target: rhodopsin (Bos taurus, UniProt P02699); test: extra MII stabilization assay; assay type: biochemical
Sequence (P02699 whole entry): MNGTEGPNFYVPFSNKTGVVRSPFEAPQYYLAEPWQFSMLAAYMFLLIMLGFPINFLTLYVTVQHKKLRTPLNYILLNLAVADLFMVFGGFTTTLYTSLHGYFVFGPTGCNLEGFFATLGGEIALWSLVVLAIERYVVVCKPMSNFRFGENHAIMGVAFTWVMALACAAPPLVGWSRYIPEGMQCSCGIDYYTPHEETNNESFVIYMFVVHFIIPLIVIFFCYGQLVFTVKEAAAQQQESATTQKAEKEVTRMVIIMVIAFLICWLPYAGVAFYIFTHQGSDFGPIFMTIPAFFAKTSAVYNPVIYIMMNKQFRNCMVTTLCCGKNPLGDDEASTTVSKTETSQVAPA

| EC50 [mM] | Substance |
| --- | --- |
| 11.8 ± 6.7 | AW 00987 [compound 5] |
| 3 ± 0.28 | KM 05703 [compound 4] |
| 16.3 ± 12.3 | RJC 01340 [compound 3] |

Reference: paper PMC2911999 (Chemical biology & drug design, 2010)
